Measured values from PubChem BioAssay AID2060625 (Molecular Pharmacology Branch, DTP, NCI, 2025).

Tested on: 186277-243-T-J2-PDC spheroids with HUVEC/MSC, viability
Test: Anticancer human tumor 186277-243-T-J2-PDC patient-derived colon adenocarcinoma cell line growth inhibition [CLK]
Settings: for IC50: curve of first compound; for viability, T/C: stronger effect = lower value; active = viability on the fitted dose curve at most 10% of control; inactive = the rest
Text: A high-throughput screen of multi-cell type tumor spheroids was designed to identify active combinations of […] and targeted small molecules. Complex spheroids include a stromal component modeled by human endothelial cells (HUVEC) and fibroblasts modeled by human mesenchymal stem cells (MSCs). The concentration ranges selected for each drug and investigational agent were based upon clinically achievable concentrations if the clinical Cmax of the agent was known.
Compounds. The drugs and investigational agents: cirtuvivint (SM08502; NSC835563), CC-671 (NSC850746), vemurafenib (NSC761431), tapotoclax (NSC804041), sotorasib (NSC818433), adagrasib (NSC831453), MRTX-1133 (NSC836407), BAY2416964 (NSC825713), copanlisib (NSC816437), inavolisib (NSC800729), abemaciclib (NSC768073), osimertinib (NSC779217), entinostat (NSC756642), eltanexor (KPT-8602, NSC794443), venetoclax (NSC766270), ceralasertib (NSC777638), bortezomib (NSC756655), olaparib (NSC753686), talazoparib (NSC767125), alisertib (NSC759677), peposertib (NSC802822), gemcitabine (NSC613327), 5-fluorouracil (NSC19893), SN-38 (NSC673596), oxaliplatin (NSC266046), paclitaxel (NSC125973), and doxorubicin (NSC123127), were obtained from the National Cancer Institute (NCI) Developmental Therapeutics Program Chemical Repository. The FDA-approved anticancer drug set is available from the Developmental Therapeutics Program at https://dtp.cancer.gov/organization/dscb/obtaining/available plates.htm. […] The stock solutions were prepared in dimethyl sulfoxide (DMSO, Sigma-Aldrich, St. Louis, MO, cat. D2650), except for the platinum complexes which were prepared in saline (Quality Biological, Gaithersburg, MD, cat. 114-055-101), at 800-fold the tested concentration and stored at -70 degrees C prior to their use. All drugs and investigational agents were tested over a range starting from a high concentration at or near the clinical Cmax and decreasing in half-log increments. If the clinical Cmax for an agent had not been determined, the highest concentration tested was 10 microM.
Cell Culture. All cells were maintained in an incubator at 37 degrees C and 5% CO2 with 95% humidity. The PDC lines were cultured according to standard operating procedures established by the NCI PDMR. Briefly, all PDCs were thawed and cultured in Matrigel-coated flasks prepared with a working solution of 1X Ham's F-12 nutrient mix, without supplementation (Invitrogen, Waltham, MA, cat. 11765054), 100 U/mL penicillin-streptomycin (Invitrogen, cat. 15140122), and 2.5% Matrigel (Corning Inc., Corning, NY, cat. 354248) for the first three passages. The 947758-054-R-J2-PDC line was cultured in 6B/Colon 1A media, which includes advanced DMEM/F-12 (Thermo Fisher Scientific, cat. 12634028), 10 mM HEPES (Thermo Fisher Scientific, cat. 15630080), 1X GlutaMAX supplement (Thermo Fisher Scientific, cat. 35050061), 0.1 mg/mL primocin (InvivoGen, cat. ant-pm-2), 10% defined fetal bovine serum, heat inactivated (HyClone Laboratories Inc., cat. SH30070.03HI), 1.25 mM N-Acetyl-L-cysteine (Sigma-Aldrich, cat. A9165), 10 mM nicotinamide (Sigma-Aldrich, cat. N0636), 1X B-27 supplement (Thermo Fisher Scientific, cat. 17504044), 1X N-2 supplement (Thermo Fisher Scientific, cat. 17502048), and 10 microM Y-27632 dihydrochloride (Tocris Bioscience, cat. 1254). The 876862-298-R-J1-PDC was cultured in 6E media, which includes all 6B/Colon 1A media components plus 50% L-WRN conditioned media (ATCC, cat. CRL-3276), 50 ng/mL recombinant human EGF recombinant protein (hEGF; Thermo Fisher Scientific, cat. PHG0311), 10 ng/mL recombinant human fibroblast growth factor 10 (hGFG-10; PeproTech, cat. 100-26), 1 ng/mL recombinant human fibroblast growth factor 2 (hFGF-2; PeproTech, cat. 100-18B), and 1 µM prostaglandin E2 (PGE2; Tocris, cat. 2296). The 227483-062-R1-J1-PDC line was cultured in Panc media, containing all 6E components except hFGF-2, with the addition of 500 nM SB-431542 (Selleckchem, cat. S1067) and 10 nM gastrin (Tocris, cat. 3006). […]
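Also: compound exposure lasted seven days before readout.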
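For viability, T/C in this document: 100% = DMSO vehicle control wells.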

CC(C)CC(NC(=O)C(Cc1ccccc1)NC(=O)c1cnccn1)B(O)O (configuration not stated) + CNC(=O)c1ccc(Nc2nc(OC3CCCC3)c3c(-c4ccc5nc(C)oc5c4)c[nH]c3n2)c(OC)c1
inactive: viability, T/C (second compound 0.0316 µM, first compound 0.000949 µM) 112% | viability, T/C (second compound 0.0316 µM, first compound 0.003 µM) 60.9% | viability, T/C (second compound 0.1 µM, first compound 0.000949 µM) 77.7% | viability, T/C (second compound 0.1 µM, first compound 0.003 µM) 27.6% | viability, T/C (second compound 0.316 µM, first compound 0.000949 µM) 52.8% | viability, T/C (second compound 0.316 µM, first compound 0.003 µM) 13.1% | viability, T/C (second compound 1 µM, first compound 0.000949 µM) 36.5% | viability, T/C (second compound 3.16 µM, first compound 0.000949 µM) 33.3% | viability, T/C (second compound 10 µM, first compound 0.000949 µM) 40.4%
< 0.949 nM: IC50 (second compound 1 µM) | IC50 (second compound 3.16 µM) | IC50 (second compound 10 µM)
active: viability, T/C (second compound 0.0316 µM, first compound 0.00949 µM) 4.41% | viability, T/C (second compound 0.0316 µM, first compound 0.03 µM) 2.07% | viability, T/C (second compound 0.0316 µM, first compound 0.0949 µM) 3.06% | viability, T/C (second compound 0.0316 µM, first compound 0.3 µM) 2.24% | viability, T/C (second compound 0.1 µM, first compound 0.00949 µM) 3.68% | viability, T/C (second compound 0.1 µM, first compound 0.03 µM) 1.91% | viability, T/C (second compound 0.1 µM, first compound 0.0949 µM) 2.97% | viability, T/C (second compound 0.1 µM, first compound 0.3 µM) 2.4% | viability, T/C (second compound 0.316 µM, first compound 0.00949 µM) 2.31% | viability, T/C (second compound 0.316 µM, first compound 0.03 µM) 2.27% | viability, T/C (second compound 0.316 µM, first compound 0.0949 µM) 1.45% | viability, T/C (second compound 0.316 µM, first compound 0.3 µM) 0.89% | viability, T/C (second compound 1 µM, first compound 0.003 µM) 3.94% | viability, T/C (second compound 1 µM, first compound 0.00949 µM) 2.3% | viability, T/C (second compound 1 µM, first compound 0.03 µM) 2.6% | viability, T/C (second compound 1 µM, first compound 0.0949 µM) 4.22% | viability, T/C (second compound 1 µM, first compound 0.3 µM) 2.48% | viability, T/C (second compound 3.16 µM, first compound 0.003 µM) 2.4% | viability, T/C (second compound 3.16 µM, first compound 0.00949 µM) 0.9% | viability, T/C (second compound 3.16 µM, first compound 0.03 µM) 2.14% | viability, T/C (second compound 3.16 µM, first compound 0.0949 µM) 2.81% | viability, T/C (second compound 3.16 µM, first compound 0.3 µM) 0.81% | viability, T/C (second compound 10 µM, first compound 0.003 µM) 2.71% | viability, T/C (second compound 10 µM, first compound 0.00949 µM) 1.47% | viability, T/C (second compound 10 µM, first compound 0.03 µM) 4.33% | viability, T/C (second compound 10 µM, first compound 0.0949 µM) 2.67% | viability, T/C (second compound 10 µM, first compound 0.3 µM) 1.5%
3.74 nM: IC50 (second compound 0.0316 µM)
1.03 nM: IC50 (second compound 0.316 µM)
1.79 nM: IC50 (second compound 0.1 µM)
